pKi: −log10 of the molar value. Bounds are passed on as bounds.

In the experiment the target is T1, human FAAH (Homo sapiens, UniProt O00519).
T1 construct: host or cells: COS-7 cells, transient transfection; 13,000 g membrane fraction solubilised in 1% Triton X-100
T1 sequence (O00519 1-579): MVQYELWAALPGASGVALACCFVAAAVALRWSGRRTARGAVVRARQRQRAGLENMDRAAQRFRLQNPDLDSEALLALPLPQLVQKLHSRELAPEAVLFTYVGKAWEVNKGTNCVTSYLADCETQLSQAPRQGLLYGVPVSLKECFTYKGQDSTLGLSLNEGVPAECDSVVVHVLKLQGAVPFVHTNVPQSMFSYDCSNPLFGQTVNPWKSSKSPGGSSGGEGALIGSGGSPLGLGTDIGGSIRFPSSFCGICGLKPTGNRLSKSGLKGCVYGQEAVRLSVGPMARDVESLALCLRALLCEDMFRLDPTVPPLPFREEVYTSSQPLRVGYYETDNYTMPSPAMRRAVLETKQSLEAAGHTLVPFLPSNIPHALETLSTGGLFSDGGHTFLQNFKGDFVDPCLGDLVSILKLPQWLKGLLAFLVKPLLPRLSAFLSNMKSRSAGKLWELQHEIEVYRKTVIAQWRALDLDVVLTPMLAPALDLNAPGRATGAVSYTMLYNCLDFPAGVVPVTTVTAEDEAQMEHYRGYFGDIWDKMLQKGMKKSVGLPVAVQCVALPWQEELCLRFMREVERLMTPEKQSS
The experiment can be described thus: Inhibition of human FAAH (fluorescence assay, AMC arachidonoyl amide substrate). In kind it is biochemical. Particulars: solubilized human FAAH from transfected COS-7 cells; 30 min preincubation; 20 μM AMC-arachidonoyl amide; 4 h at room temperature. On the procedure: Human FAAH Preparation: COS-7 cells were split the day before, 1:5 into 150 mm×25 mm cell culture dishes (Corning Inc., Cat. No. 430599). Transient transfection took place at 30-40% confluency according to FuGENE 6 Transfection Reagent (Roche, Cat. No. 11814 443 001).
Transfection Procedure: The FuGENE transfection 6 reagent (45 uL) was added to 1410 μL of media (DMEM, serum free without pen/strep) in a 15 mL conical tube and incubated at room temp for 5 minutes, followed by the addition of FAAH plasmid DNA (15 μg) (OriGene Cat. No. TC119221, Genbank Accession No. NM_001441.1, 0.67 ug/uL) and a further incubation of 15 minutes at room temperature. The resulting solution was added into one dish of 30-40% confluent COS-7 cells in a drop-wise manner. The COS-7 cell dish was subsequently incubated for 48 hours. The cells are then harvested.
Harvest procedure: Media was aspirated from the dishes and the cells rinsed with 10 mL PBS. The PBS was removed and 3 mL of PBS added to the dish. The dish was scraped to resuspend the cells, and the subsequent cell suspension collected into a 15 mL conical tube. The cells were pelleted by centrifugation at 1200 rpm for 5 minutes in a bench top centrifuge. PBS was removed and the cell pellet snap frozen in liquid nitrogen and stored at −80° C.
COS-7 cells—FAAH purification: • (1) Fractionation: Frozen cell pellets from transient transfections were thawed on ice and resuspended in 12.5 mM Hepes pH 8.0, 100 mM NaCl, 1 mM EDTA (10 mL/0.2 g cell pellet). The pellets were dounce homogenized and then sonicated to produce cell extract. The cell extract was subsequently centrifuged at 1000 g to remove cellular debris. The pellet was discarded and the supernatant centrifuged at 13,000 g for 20 minutes. The pellet contained membrane bound FAAH. The supernatant was discarded and the pellet resolubilized. • (2) Re-solubilization: The fraction of interest, (13,000 g, membrane fraction) was re-suspended in 2.3 mL re-suspension buffer (20 mM Hepes pH 7.8, 10% v/v Glycerol, 1 mM EDTA, 1% Triton X-100) and the sample incubated on ice for 1 hour and then centrifuged to remove any particulate matter. The supernatant containing solubilized human FAAH was aliquoted and snap frozen in liquid nitrogen and stored at 80° C. until use. • (3) Characterization: Protein Concentration determined by Bradford assay. • SDS gel and Western blot to confirm presence of FAAH • FAAH activity assay • Km determination—96-well assay • Linear dependence—96-well assay • Standard compound Ki determination—384-well assay
Human FAAH assay; Experimental Protocol: A 0.1 mg/mL Human FAAH solution was made up in FAAH reaction buffer, and 24 ul pipeted into a 384 well plate. To this was added 1 μL of a 3 fold serially diluted inhibitor from a DMSO stock solution. The FAAH solution and inhibitor were incubated for 30 minutes at room temperature. The FAAH reaction was initiated by the addition of 25 μL of 40 μM AMC Arachidonoyl Amide in FAAH reaction buffer, yielding a final reaction human FAAH preparation concentration of 0.05 mg/ml and AMC-Arachidonoyl substrate concentration of 20 μM, reaction volume 50 μL. The reaction was allowed to proceed for 4 hours at room temperature. The reaction was stopped by the addition of 25 μL 12 μM a-ketoheterocycle (Cayman Chemicals, catalogue #10435). The microtiter plate was read in the envision plate reader.
The raw fluorescence was plotted on the y axis and the inhibitor concentration on the x axis to give a dose response inhibition curve. The data was fitted to a single site competitive inhibition equation, fixing the Km for the human enzyme to 12 μM and 9 μM respectively.
The pKi is the Ki on a negative log10 scale, so that one unit is a factor of ten. A higher pKi goes with a low Ki. In the case of `O=C(Oc1ccccc1)N1CCC2(CC1)CC(Br)=NO2` [III-37], the pKi was not below 7.00.

Turning to `Clc1ccc(CN2CC3ON=C(Br)C3C2)cc1` (stereo not shown) [III-45], the pKi was not above 6.00.

`CC(C)(C)OC(=O)N1CCC2(CC1)CC(Br)=NO2` [III-9] gave a negative-log Ki (pKi) not below 7.00.

The molecule `CC(C)(C)OC(=O)N1CC[C@@]2(CC(Br)=NO2)C1` [III-11a] gave a pKi of 6.00 to 7.00.

Regarding `Clc1ccc(CN2CCC3(CC2)CC(Br)=NO3)cc1Cl` [III-25], the pKi is not below 7.00.

Take `FC(F)(F)Oc1ccc2c(c1)CC[C@]21CC(Br)=NO1` [III-66b]: the pKi is not below 7.00.

Molecule `BrC1=NOC2(CCN(Cc3ccccn3)CC2)C1` [III-22] gave a pKi of 6.00 to 7.00.

In turn, `CC(C)(C)OC(=O)N1CC[C@]2(CC(Br)=NO2)C1` [III-11b] had a pKi of 6.00 to 7.00.

Molecule `C[N+]1(C2=NOC3(CCN(C(=O)OCc4ccccc4)CC3)C2)CCCC1` [III-60] gave a pKi not above 6.00.

On to `CC(C)(C)CN1CCC2(CC1)CC(Br)=NO2` [III-33], for which the pKi was 6.00 to 7.00.

Take `CC(C)COC(=O)N1CCC2(CC1)CC(Br)=NO2` [III-36]: the pKi was not below 7.00.

In turn, `BrC1=NOC2(CCN(CC3CCCCC3)CC2)C1` [III-32] showed a pKi not below 7.00.

Molecule `Cc1ccc(CN2CCC3(CC2)CC(Br)=NO3)cc1` [III-24] showed a pKi not below 7.00.

`CSc1ccc(OC2=NO[C@@]3(CCc4cc(OC(F)(F)F)ccc43)C2)cn1` [III-67b] showed a pKi not below 7.00.

Molecule `O=C(OCC(Cl)(Cl)Cl)N1CCC2(CC1)CC(Br)=NO2` [III-38] showed a pKi of 6.00 to 7.00.

For the molecule `BrC1=NO[C@@]2(CCc3cc(Oc4ccccc4)ccc32)C1` [III-63b], the pKi was not below 7.00.

In turn, `CC(C)(C)OC(=O)N1CCC[C@@]2(CC(Br)=NO2)C1` [III-10a] gave a pKi not above 6.00.

Regarding `O=C(OCc1ccccc1)N1CCC2(CC1)CC(Oc1cccnc1)=NO2` [III-46], the pKi is not below 7.00.

`O=C(OCc1ccccc1)N1CC2ON=C(Br)C2C1` (stereo not shown) [III-44] showed a pKi not below 7.00.

For `Cn1nccc1-c1ccc(OC2=NO[C@@]3(CCc4cc(OC(F)(F)F)ccc43)C2)cn1` [III-71b], the pKi is not below 7.00.

`BrC1=NOC2(CCN(Cc3cccnc3)CC2)C1` [III-23] gave a pKi of 6.00 to 7.00.

Molecule `CSc1ccc(OC2=NO[C@]3(CCc4cc(OC(F)(F)F)ccc43)C2)cn1` [III-67a] had a pKi not below 7.00.

Molecule `BrC1=NOC2(CCC3(CC2)OCCO3)C1` [III-4] gave a pKi not above 6.00.

`BrC1=NO[C@@]2(CCCc3cc(Oc4ccccc4)ccc32)C1` [III-62b] showed a pKi not below 7.00.

Regarding `O=C(CCc1ccccc1)N1CCC2(CC1)CC(Oc1cncnc1)=NO2` [III-54], the pKi was 6.00 to 7.00.

`O=C(CCc1ccccc1)N1CCC2(CC1)CC(Br)=NO2` [III-34]: the pKi is not below 7.00.

The molecule `BrC1=NO[C@]2(CC[C@@H](c3ccccc3)CC2)C1` [III-3b] had a pKi not below 7.00.

`BrC1=NO[C@]2(CCCc3cc(Oc4ccccc4)ccc32)C1` [III-62a]: the pKi is not below 7.00.

On to `FC(F)(F)Oc1ccc2c(c1)CC[C@@]21CC(Br)=NO1` [III-66a], for which the pKi was not below 7.00.

In turn, `FC(F)(F)Oc1ccc2c(c1)CC[C@@]21CC(Oc2cncc(-c3nnco3)c2)=NO1` [III-73a] gave a pKi not below 7.00.

`BrC1=NOC2CC(OCc3ccccc3)CC12` (stereo not shown) [III-42] had a pKi of 6.00 to 7.00.

`Clc1ccc(CN2CCC3(CC2)CC(Oc2cncnc2)=NO3)cc1` [III-52] had a pKi not below 7.00.

In turn, `CC(C)(C)OC(=O)N1CCC[C@@]2(CC1)CC(Br)=NO2` [III-12a] showed a pKi not below 7.00.

`COC(=O)N1CCC2(CC1)CC(Br)=NO2` [III-35] gave a pKi of 6.00 to 7.00.

`CC(C)(C)OC(=O)N1C[C@@H]2ON=C(Br)[C@@H]2C1` [III-43b] had a pKi of 6.00 to 7.00.

`CS(=O)(=O)c1ccc(OC2=NOC3(CCN(C(=O)c4ccccc4)CC3)C2)cn1` [III-58]: the pKi is 6.00 to 7.00.

Molecule `O=C(CCCC(F)(F)F)N1CCC2(CC1)CC(Oc1cncnc1)=NO2` [III-57] had a pKi not above 6.00.

The molecule `C#Cc1ccc(CN2CCC3(CC2)CC(Oc2cccnc2)=NO3)cc1` [III-50] showed a pKi not below 7.00.

Take `CC(C)(C)[C@H]1CC[C@]2(CC1)CC(Br)=NO2` [III-2a]: the pKi is 6.00 to 7.00.

`CC(C)(C)OC(=O)N1CCC[C@]2(CC(Br)=NO2)C1` [III-10b] showed a negative logarithm of the Ki (pKi) not above 6.00.

Molecule `CC(C)(C)OC(=O)N1C2CCC1CC1(CC(Br)=NO1)C2` (stereo not shown) [III-13a] gave a pKi not above 6.00.

On to `Clc1ccc(CN2CCC3(CC2)CC(Oc2cccnc2)=NO3)cc1` [III-51], for which the pKi is not below 7.00.

Regarding `O=C(O)c1ccc(OC2=NO[C@@]3(CCc4cc(OC(F)(F)F)ccc43)C2)cn1` [III-74b], the pKi was not below 7.00.

Molecule `Cn1cc(-c2ccc(OC3=NO[C@]4(CCc5cc(OC(F)(F)F)ccc54)C3)cn2)cn1` [III-70a] gave a pKi not below 7.00.

Molecule `Clc1cccc(CN2CCC3(CC2)CC(Br)=NO3)c1` [III-27] showed a pKi not below 7.00.

Turning to `CS(=O)(=O)c1ccc(OC2=NO[C@]3(CCc4cc(OC(F)(F)F)ccc43)C2)cn1` [III-68a], the pKi is not below 7.00.

`O=C(OCc1ccccc1)N1CCC2(CC1)CC(Br)=NO2` [III-18] had a pKi not below 7.00.

In turn, `CC(C)(C)OC(=O)N1C[C@@H]2C(Br)=NO[C@@H]2C1` [III-43a] had a pKi of 6.00 to 7.00.

For `BrC1=NO[C@]2(CCc3cc(Oc4ccccc4)ccc32)C1` [III-63a], the pKi was not below 7.00.

On to `BrC1=NO[C@]2(CC[C@H](COc3ccccc3)CC2)C1` [III-8a], for which the pKi was not below 7.00.

`FC(F)(F)c1ccc(CN2CCC3(CC2)CC(Br)=NO3)cc1` [III-26] gave a pKi not below 7.00.

Consider `O=C(Nc1ccccc1)N1CCC2(CC1)CC(Oc1cncnc1)=NO2` [III-56], for which the pKi was not above 6.00.

The molecule `CC(C)(C)OC(=O)N1CCC2(CC1)CC(Cl)=NO2` [III-47] showed a pKi not below 7.00.

With `ClC1=NOC2(CCN(Cc3ccc(Cl)cc3)CC2)C1` [III-48], the pKi was not below 7.00.

`CC(C)(C)[C@H]1CC[C@@]2(CC1)CC(Br)=NO2` [III-2b] showed a pKi of 6.00 to 7.00.

Consider `COc1ccc(CN2CCC3(CC2)CC(Br)=NO3)cc1` [III-21], for which the pKi is not below 7.00.

In turn, `O=C(OCc1ccc(Cl)cc1)N1CCC2(CC1)CC(Br)=NO2` [III-40] gave a pKi not below 7.00.

`BrC1=NOC2(CCN(Cc3ccccc3)CC2)C1` [III-19] gave a pKi not below 7.00.

The molecule `COc1ccc(COC(=O)N2CCC3(CC2)CC(Br)=NO3)cc1` [III-39] showed a pKi not below 7.00.

Take `CC(=O)N1CCC2(CC1)CC(Br)=NO2` [III-15]: the pKi was not above 6.00.

On to `BrC1=NO[C@]2(CC[C@@H](COc3ccccc3)CC2)C1` [III-8b], for which the pKi is not below 7.00.
